Measurements from US20090181098A1, “Hmg-Co-a Reductase Inhibitor Enhancement of Bone and Cartilage” (OsteoScreen IP, LLC, priority 2006, published 2009).

Legend:
femur fracture model = experiment: Femur fracture model, systemically delivered lovastatin (radiographs, biomechanics); format: in vivo, rat
neonatal murine calvaria = experiment: Neonatal murine calvarial explant culture, bone and cartilage formation; format: cell-based, mouse
Method: Four day old calvarial explant cultures were incubated with media containing scaffold material that releases 0, 0.4 or 8 μg/day. The extent of new cartilage is then quantitated by imaging analysis.
Experimental Design Four day old Swiss white pups were employed as they are generally a healthy mouse strain. Calvaria from 4-day old Swiss white mouse pup mice were dissected out and cut in half. The excised hemi-calvariae were placed on metal grids (at the surface) in 1 ml BGJ media with Fitton-Jackson modification BGJ media (Sigma) containing 0.1% BSA with glutamine. The bones are incubated at 37° C. in a 5% humidified incubator for a period of 24 h and then transferred to wells containing 1 ml media with test compounds and further incubated under the above conditions for 72-96 h. The bones are then removed, fixed in 10% buffered formalin for 24 h, decalcified in 14% EDTA overnight, embedded in paraffin and 4 μm-thick sections cut and stained with H&E.
Dosing. […] Calvaria are removed at day 7 and day 14. The media is changed every 3 days. Cartilage formation is assessed histologically.

[1] = system: ovariectomized (OVX) rats; experiment: Effects of transdermal lovastatin on bone in ovariectomized rats (histomorphometry); format: in vivo, rat
Method: (§1) Following sacrifice, both femurs and tibiae were removed, cleaned of soft tissue, fixed in 10% formalin for 48 hours, and then stored in 70% ETOH and prepared for histology. Histomorphometric analysis was performed using a semiautomated Osteomeasure System (Osteometrics, Inc., Atlanta, Ga.) and digitizing pad and by following standard histomorphometric techniques. Bone volume, trabecular number, thickness and separation, cell number and dynamic parameters were determined as described previously by Parfitt et al. [Parfitt A M (1988) Bone histomorphometry: standardization of nomenclature, symbols and units. Summary of proposed system. J Bone Miner Res 4:1-5.]. Bone formation rates (BFR) and mineral apposition rates (MAR) were measured in plastic-embedded sections following demeclocycline and calcein injections (15 and 20 mg/kg/body weight respectively) given intraperitoneally at 10 and 4 days before sacrifice. Values for MAR were corrected for obliquity of the plane of section in cancellous bone. Rats were evaluated with a mouse densitometer, Piximus (GE Medical Systems); bone mineral density (BMD), calculated by dividing bone mineral content (g) by the projected bone area (cm^2), was assessed for the proximal third of the tibia at time 0 and at 5 weeks. Micro-computed tomography (μ-CT) analysis of the rat distal femur was kindly performed by Phil Salmon (Skyscan, Belgium). Bones were scanned using the Skyscan Model 1072 employing an x-ray tube voltage of 100 kV, and magnified to attain a pixel size of 10.13 μm. Data are expressed as the mean standard error (SEM). Statistical differences between groups were evaluated with one-way analysis of variance (ANOVA). […] P<0.05 were considered significant.

[2] = Plasma lovastatin levels after a single oral or dermal dose, estimated by HMG-CoA reductase inhibition assay; format: in vivo, rat
Method: The area under the plasma concentration-time curve (AUC0-24 hr) of lovastatin equivalence was calculated using the trapezoidal rule for both oral and dermal application of lovastatin. For oral administration, a suspension of lovastatin was prepared in 0.5% methylcellulose and administered by gavage. For dermal administration, lovastatin was mixed initially with 100% DMSO and in subsequent experiments, with hydrophilic petrolatum and applied to the back of the animals after shaving (area of application=6.45 cm^2). In later experiments, the dermal formulation was modified and a aqueous alkanolic gel with a carbomer-based formulation containing water, ethanol, Carbomer 940, cholesterol, BHA and TEA was used.

intact rats = experiment: Effects of transdermal lovastatin on bone in intact rats (BMD, histomorphometry, μCT); format: in vivo, rat; settings: for Increase in bone volume, proximal tibial metaphysis: dermal, hydrophilic petrolatum, 4 weeks after treatment
Method: as §1

rat femur = experiment: Biomechanical testing of intact femurs (three point bending); format: in vivo
Method: Three month old rats were dosed with vehicle or transdermal lovastatin, 1 mg/kg/day for 5 days. Four weeks after dosing, rats were euthanized and femurs removed and stored frozen. Samples were thawed to room temperature on the day of testing, and remaining soft tissue was removed. To obtain mechanical properties, the femurs were subjected to three point bending with an EnduraTEC mechanical testing system (Elf 3300, Bose Corporation, Minnetonka, Minn.). Each rat femur was horizontally positioned on the support rollers (which were 12 mm apart) such that the vertical, rounded indenter loaded the femur with the medial side in front and the anterior side down (i.e., bending occurred about the medial-lateral axis). The force-displacement curve was recorded as the indenter traveled at rate of 3 mm/min into femur midshaft. Structural properties were obtained directly from the load deformation curves.

[3] = poly(DL-lactide) nanoparticles
Method: The test material is lovastatin in nanoparticles prepared as described above. […] The test articles are nanoparticles with and without lovastatin. […] The lovastatin levels are determined by HPLC and the release curved is followed throughout the experiment.

[4] = aqueous alkanolic gel, lowest dose tested
[5] = transdermal 1 and 5 mg/kg/day for 5 days
[6] = transdermal 1 mg/kg/day for 5 days, femurs four weeks after dosing

Compound: CC[C@H](C)C(=O)O[C@H]1C[C@@H](C)C=C2C=C[C@H](C)[C@H](CC[C@@H]3C[C@@H](O)CC(=O)O3)[C@H]21 [lovastatin]
- Maximum force to break the bones, 2.5 mg/kg vs 1 mg/kg/day (femur fracture model; Experiment 1, 5 day transdermal dose of 2.5 mg/kg, 6 weeks): lower maximum force than the 1 mg/kg/day dose
- Radiological evaluation of fracture repair (femur fracture model; Experiment 1, oral 10 and 25 mg/kg, six weeks): no difference between the treated and the controls
- Radiographic score at 2 weeks (femur fracture model; Experiment 1, oral 10 and 25 mg/kg/day): no difference from vehicle-treated controls
- Force required to break the bone (femur fracture model; Experiment 1, oral 10 and 25 mg/kg/day, 6 weeks): no effect
- Radiographic score at 2 weeks (femur fracture model; Experiment 1, transdermal 1 and 2.5 mg/kg/day): striking effect at both doses
- Force required to break the bone, greater than vehicle treated controls (femur fracture model; Experiment 1, transdermal, 6 weeks): 42%
- Radiological evaluation of fracture repair (femur fracture model; Experiment 1, transdermal, week 6): complete healing by week 6
- Force required to break the bone, greater than vehicle-treated controls (femur fracture model; Experiment 2, TD 0.1 mg/kg/day, 6 weeks): 42%
- Maximum force to rebreak the bones (femur fracture model; Experiment 2, TD doses higher than 0.1 mg/kg/day): reduced maximum force
- Force required to break the bone (femur fracture model; Experiment 2, oral 5 mg/kg/day, 6 weeks): no effect
- Stiffness (femur fracture model; Experiment 2, oral 5 mg/kg/day, 6 weeks after fracture): no effect
- Most effective transdermal dose (femur fracture model; for 5 days): 0.1 mg/kg/day
- Stiffness (femur fracture model; previous experiment (Experiment 1), oral, higher doses): increase in stiffness
- Fracture healing (radiographic examination and biomechanical loading) (femur fracture model; transdermal): accelerates fracture healing
- Strength and stiffness of fractured bones (femur fracture model; transdermal, even at 0.1 mg/kg/day for 5 days only): increase in both strength and stiffness
- Bone formation in cultures of neonatal murine calvaria (neonatal murine calvaria; 7 days after exposure): stimulates bone formation
- Cartilage formation in cultures of neonatal murine calvaria (neonatal murine calvaria; 14 days after exposure, scaffold release 0.4 and 0.8 μg/24 h): stimulate cartilage formation in a dose response fashion
- Effective transdermal dose as fraction of the dose required orally for an effect on bone formation ([1]; 0.01 mg/kg transdermal vs oral dose of Mundy et al. 1999): approximately 1/1000
- Bone formation rates ([1]; 5 days of transdermal exposure, 0.01 mg/kg body weight): markedly increased
- Trabecular number [1, 4]: significant increase in trabecular number
- Trabecular separation [1, 4]: significant decrease in trabecular separation
- Increase in bone volume vs OVX rats treated with vehicle ([1]; dermal 1 mg/kg/day, 5 days (FIG. 4)): 50%
- Bone formation rates (BFR) ([1]; dermal, 5 day administration (FIG. 6)): significant increase
- OVX-induced changes in trabecular thickness, number and separation ([1]; dermal, 5 days (FIG. 5)): partly prevented these changes
- Bone volume by histomorphometry ([1]; dermal, aqueous alkanolic gel, 0.01 to 0.5 mg/kg/day for 5 days, significant at 0.01 mg/kg/day): increased bone volume at all the doses tested
- Increase in bone volume vs vehicle-treated OVX rats ([1]; dermal, hydroalcoholic gel, 0.01 to 0.5 mg/kg/day for 5 days, proximal tibiae, four weeks after dosing): > 40%
- Increase in bone volume vs vehicle-treated OVX rats ([1]; dermal, hydrophilic petrolatum, 5 days, even at the lowest dose (FIG. 3b)): > 50%
- Cancellous bone connectivity (trabecular thickness, number, separation, star volume, fractal dimension, pattern factor) ([1]; transdermal): increased cancellous bone connectivity
- Plasma levels, aqueous alkanolic gel compared with hydrophilic petrolatum ([2]; single dermal dose): higher plasma levels
- Time to peak plasma levels ([2]; single dermal dose in aqueous alkanolic gel): within the first hour
- AUC0-24 h, aqueous alkanolic gel relative to petrolatum formulation ([2]; single dermal dose, both doses tested (6.25 and 25 mg/kg)): more than double
- Plasma concentrations, dermal compared with oral ([2]; single dose 10 or 50 mg/kg, dermal in 100% DMSO vs gavage in 0.5% methylcellulose, 1, 3, 6, 24 h): greater, less variable and more prolonged
- Bone formation rates greater than those of control rats (intact rats; after 30 days, transdermal 5 days): more than 150%
- Increase in bone formation rates (intact rats; dermal 5 mg/kg/day): 166%
- Increase in bone volume, proximal tibial metaphysis (intact rats; 1 mg/kg/day for 5 days only): 17%
- Increase in bone volume, proximal tibial metaphysis (intact rats; 5 mg/kg/day for 5 days only): 33%
- Cancellous bone volume in distal femoral metaphyses by μCT vs controls (intact rats; [5]): higher cancellous bone volume
- Trabecular thickness, number and spacing by μCT (intact rats; [5]): increase in trabecular thickness and number, and reduced trabecular spacing
- Increase in BMD over vehicle-treated controls (intact rats; weekly dermal administration, proximal tibiae, Piximus, end of five weeks): 8%
- Increase in bending strength of femurs vs control (rat femur; dermal 1 mg/kg/day for 5 days): 19%
- Bending strength (rat femur; [6]): 165.2 ± 3 MPa
- Maximum force (rat femur; [6]): 141.7 ± 3.4 N
- Modulus of elasticity (rat femur; [6]): 6379.9 ± 455.1 MPa
- Stiffness (rat femur; [6]): 561.3 ± 29.5 N/mm
- Release rate of lovastatin from nanoparticles [3]: about 2 %/day
